Experimental data: PubChem BioAssay AID248 (DTP/NCI, 2004)
Several values for one entry are separate records, joined by “and”; a condition that tells them apart may be missing. Equal entries are not always repeated. Inconclusive results and toxic doses are left out. Rule as the data show it: active = T/C of 150% or more; inactive = T/C below 125%.

Test system: L1210 leukemia ip in BDF1 mice, survival T/C
Test: NCI In Vivo Anticancer Drug Screen. Data for tumor model L1210 Leukemia (intraperitoneal) in B6D2F1 (BDF1) mice
Conditions: endpoint: mean survival time, higher = longer survival
Outline: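 Each compound was tested against a transplantable tumor grown in mice. The endpoint was survival, with treated animals benchmarked against vehicle controls as a simple ratio.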

[1] = dose: 100.0 mg/kg/injection, schedule: Q01DX009 (ip), vehicle: Klucel (hydroxypropylcellulose) (HPC)
[2] = dose: 100.0 mg/kg/injection, schedule: Q04DX003 (ip), vehicle: Klucel (hydroxypropylcellulose) (HPC)
[3] = dose: 200.0 mg/kg/injection, schedule: Q01DX009 (ip), vehicle: Klucel (hydroxypropylcellulose) (HPC)
[4] = dose: 200.0 mg/kg/injection, schedule: Q04DX003 (ip), vehicle: Klucel (hydroxypropylcellulose) (HPC)
[5] = dose: 400.0 mg/kg/injection, schedule: Q01DX009 (ip), vehicle: Klucel (hydroxypropylcellulose) (HPC)
[6] = dose: 400.0 mg/kg/injection, schedule: Q04DX003 (ip), vehicle: Klucel (hydroxypropylcellulose) (HPC)
[7] = dose: 12.5 mg/kg/injection, schedule: Q01DX009 (ip), vehicle: acetone
[8] = dose: 50.0 mg/kg/injection, schedule: Q01DX001 (ip), vehicle: carboxymethylcellulose (CMC)
[9] = dose: 200.0 mg/kg/injection, schedule: Q01DX001 (ip), vehicle: carboxymethylcellulose (CMC)

Measured: T/C

O=[N+]([O-])c1ccc(O)c(C2CCCCC2)c1
inactive: dose: 100.0 mg/kg/injection, schedule: Q01DX009 (ip), vehicle: gum acacia 92 % of control | dose: 200.0 mg/kg/injection, schedule: Q01DX009 (ip), vehicle: gum acacia 87 % of control | dose: 400.0 mg/kg/injection, schedule: Q01DX009 (ip), vehicle: gum acacia 86 % of control

OC1CCCC2CCCNC12 (stereo not drawn) (tested in a mixture with another compound)
inactive: [1] 105 % of control | [2] 93 % of control | [3] 95 % of control | [4] 105 % of control | [5] 90 % of control | [6] 89 % of control

CCOC(=O)C1C2=C(C(N)=O)C(=O)C(C(=O)O2)C1c1ccc(O)cc1 (stereo not drawn)
inactive: dose: 100.0 mg/kg/injection, schedule: Q01DX001 (ip), vehicle: other 91 % of control | dose: 200.0 mg/kg/injection, schedule: Q01DX001 (ip), vehicle: other 97 % of control

CS(=O)(=O)OCCF
inactive: dose: 0.25 mg/kg/injection, schedule: Q01DX009 (ip), vehicle: saline 101 % of control | dose: 0.5 mg/kg/injection, schedule: Q01DX009 (ip), vehicle: saline 103 % of control | dose: 1.0 mg/kg/injection, schedule: Q01DX009 (ip), vehicle: saline 103 % of control | dose: 2.5 mg/kg/injection, schedule: Q01DX009 (ip), vehicle: carboxymethylcellulose (CMC) 103 % of control | dose: 2.5 mg/kg/injection, schedule: Q01DX009 (ip), vehicle: saline 103 % of control | dose: 5.0 mg/kg/injection, schedule: Q01DX009 (ip), vehicle: carboxymethylcellulose (CMC) 108 % of control | dose: 6.25 mg/kg/injection, schedule: Q04DX003 (ip), vehicle: saline with Tween-80 114 % of control | dose: 9.0 mg/kg/injection, schedule: Q01DX009 (ip), vehicle: saline 92 % of control | dose: 10.5 mg/kg/injection, schedule: Q01DX015 (ip), vehicle: saline 97 % of control | dose: 10.8 mg/kg/injection, schedule: Q01DX015 (ip), vehicle: saline 100 % of control | dose: 12.5 mg/kg/injection, schedule: Q01DX001 (ip), vehicle: acetone 103 % of control | [7] 106 % of control | dose: 18.0 mg/kg/injection, schedule: Q01DX015 (ip), vehicle: saline 114 % of control | dose: 20.0 mg/kg/injection, schedule: Q01DX009 (ip), vehicle: carboxymethylcellulose (CMC) 87 % of control | dose: 25.0 mg/kg/injection, schedule: Q01DX001 (ip), vehicle: acetone 116 % of control | dose: 25.0 mg/kg/injection, schedule: Q01DX001 (ip), vehicle: saline 94 % of control | dose: 30.0 mg/kg/injection, schedule: Q01DX001 (ip), vehicle: saline 98 % of control | dose: 30.0 mg/kg/injection, schedule: Q01DX015 (ip), vehicle: saline 113 % of control and 91 % of control | dose: 44.0 mg/kg/injection, schedule: Q01DX001 (ip), vehicle: saline 106 % of control and 122 % of control | dose: 50.0 mg/kg/injection, schedule: Q01DX001 (ip), vehicle: acetone 103 % of control | [8] 117 % of control | dose: 50.0 mg/kg/injection, schedule: Q01DX001 (ip), vehicle: saline 102 % of control and 109 % of control | [9] 97 % of control | dose: 400.0 mg/kg/injection, schedule: Q01DX001 (ip), vehicle: saline 87 % of control

C=CCS(=O)(=O)c1ccc(C)cc1
inactive: [2] 102 % of control | [4] 100 % of control | [6] 100 % of control

CCC(=O)OC1(c2ccccc2)CCN(CCCc2ccccc2Cl)CC1
inactive: dose: 3.13 mg/kg/injection, schedule: Q04DX002 (ip), vehicle: saline with Tween-80 103 % of control | dose: 6.25 mg/kg/injection, schedule: Q04DX002 (ip), vehicle: saline with Tween-80 106 % of control | dose: 12.5 mg/kg/injection, schedule: Q04DX002 (ip), vehicle: saline with Tween-80 103 % of control | dose: 25.0 mg/kg/injection, schedule: Q04DX002 (ip), vehicle: saline with Tween-80 106 % of control

Nc1cc(C(Cl)(Cl)Cl)nc(Cl)n1
inactive: [2] 105 % of control | [4] 94 % of control | [6] 94 % of control

CC1=C(c2ccccc2)C(O)(c2ccccc2)C(C)C1=O (stereo not drawn)
inactive: dose: 50.0 mg/kg/injection, schedule: Q01DX009 (ip), vehicle: Klucel (hydroxypropylcellulose) (HPC) 101 % of control | [1] 93 % of control | [3] 95 % of control

Cc1ccc(NC(=O)C(c2ccc(Cl)cc2)c2ccc(Cl)cc2)cc1
inactive: dose: 100.0 mg/kg/injection, schedule: Q04DX002 (ip), vehicle: Klucel (hydroxypropylcellulose) (HPC) 96 % of control | dose: 200.0 mg/kg/injection, schedule: Q04DX002 (ip), vehicle: Klucel (hydroxypropylcellulose) (HPC) 100 % of control | dose: 400.0 mg/kg/injection, schedule: Q04DX002 (ip), vehicle: Klucel (hydroxypropylcellulose) (HPC) 96 % of control

CC(=O)Nc1ccc(OC(=O)Nc2ccc(Cl)c([N+](=O)[O-])c2)cc1
inactive: [1] 97 % of control | [2] 112 % of control | [3] 104 % of control | [4] 97 % of control | [5] 93 % of control | [6] 92 % of control

C=NN=C(NN=C)NN=C
inactive: dose: 15.0 mg/kg/injection, schedule: Q01DX Z (ip), vehicle: methylcellulose (MC) 105 % of control | dose: 30.0 mg/kg/injection, schedule: Q01DX Z (ip), vehicle: methylcellulose (MC) 114 % of control | dose: 60.0 mg/kg/injection, schedule: Q01DX Z (ip), vehicle: methylcellulose (MC) 97 % of control | dose: 120.0 mg/kg/injection, schedule: Q01DX Z (ip), vehicle: methylcellulose (MC) 104 % of control | dose: 120.0 mg/kg/injection, schedule: Q01DX Z (oral), vehicle: methylcellulose (MC) 104 % of control | dose: 480.0 mg/kg/injection, schedule: Q01DX Z (oral), vehicle: methylcellulose (MC) 93 % of control

COc1ccc2c(c1)c(CC(=O)O)c(Br)n2Cc1ccccc1
inactive: dose: 100.0 mg/kg/injection, schedule: Q01DX001 (ip), vehicle: Klucel (hydroxypropylcellulose) (HPC) 112 % of control | [2] 98 % of control | dose: 200.0 mg/kg/injection, schedule: Q01DX001 (ip), vehicle: Klucel (hydroxypropylcellulose) (HPC) 112 % of control | [4] 100 % of control | dose: 400.0 mg/kg/injection, schedule: Q01DX001 (ip), vehicle: Klucel (hydroxypropylcellulose) (HPC) 101 % of control | [6] 102 % of control

O=C(CCl)OCCI
inactive: dose: 6.25 mg/kg/injection, schedule: Q01DX009 (ip), vehicle: acetone 97 % of control | [7] 95 % of control | dose: 25.0 mg/kg/injection, schedule: Q01DX009 (ip), vehicle: acetone 90 % of control | dose: 25.0 mg/kg/injection, schedule: Q04DX003 (ip), vehicle: acetone 99 % of control | dose: 35.0 mg/kg/injection, schedule: Q01DX009 (ip), vehicle: acetone 98 % of control | dose: 55.0 mg/kg/injection, schedule: Q01DX009 (ip), vehicle: acetone 90 % of control | dose: 80.0 mg/kg/injection, schedule: Q01DX009 (ip), vehicle: acetone 97 % of control | dose: 100.0 mg/kg/injection, schedule: Q01DX001 (ip), vehicle: acetone 97 % of control

O=S1(=O)CC(Cl)C1
inactive: [8] 107 % of control | dose: 100.0 mg/kg/injection, schedule: Q01DX001 (ip), vehicle: carboxymethylcellulose (CMC) 89 % of control | [9] 97 % of control

COC(=O)c1ccc(OCCOc2ccc(C(C)(C)CC(C)(C)C)cc2)c([N+](=O)[O-])c1
inactive: dose: 100.0 mg/kg/injection, schedule: Q04DX003 (ip), vehicle: saline with Tween-80 91 % of control | dose: 200.0 mg/kg/injection, schedule: Q04DX003 (ip), vehicle: saline with Tween-80 93 % of control | dose: 400.0 mg/kg/injection, schedule: Q04DX003 (ip), vehicle: saline with Tween-80 91 % of control

ClCCCN1CCN(CCCCl)CC1
inactive: dose: 6.25 mg/kg/injection, schedule: Q01DX009 (ip), vehicle: distilled water + alcohol 93 % of control | dose: 12.5 mg/kg/injection, schedule: Q01DX009 (ip), vehicle: distilled water + alcohol 95 % of control | dose: 25.0 mg/kg/injection, schedule: Q01DX009 (ip), vehicle: distilled water + alcohol 101 % of control | dose: 50.0 mg/kg/injection, schedule: Q01DX009 (ip), vehicle: distilled water + alcohol 113 % of control | dose: 100.0 mg/kg/injection, schedule: Q01DX009 (ip), vehicle: distilled water + alcohol 114 % of control

COc1ccc(C2=C(Br)C(=O)C(c3ccc(OC)cc3)=C(Br)C2=O)cc1
inactive: [2] 94 % of control | [4] 96 % of control | [6] 98 % of control

Cc1cc(O)c(O)c(C(C)(C)C)c1
inactive: dose: 100.0 mg/kg/injection, schedule: Q04DX002 (ip), vehicle: other 102 % of control | dose: 200.0 mg/kg/injection, schedule: Q04DX002 (ip), vehicle: other 87 % of control
